The values below come from publication PMC8286840, “Identifying SARS-CoV-2 antiviral compounds by screening for small molecule inhibitors of Nsp3 papain-like protease” (Biochemical Journal, 2021).

Each structure is given as a SMILES string. Structures can show the parent of a compound that is named as a salt. Where two headings read alike, the source gives them in different places.

Assay [1] addresses T1, SARS-CoV-2 PLpro (nsp3 1564–1878) (Severe acute respiratory syndrome coronavirus 2, UniProt P0DTD1). Briefly: biochemical. The arrangement: FRET-quenched peptide (Pro3) cleavage by PLpro, 10 min pre-incubation, slope over 20 min, normalised to no-compound control. The following applies: high concentration screen, read-out: % of control remaining.
The target of assay [2] is T1, SARS-CoV-2 PLpro (nsp3 1564–1878). The assay can be described thus: biochemical. The arrangement: FRET-quenched peptide (Pro3) cleavage by PLpro, 10 min pre-incubation, slope over 20 min, normalised to no-compound control. The following applies: low concentration screen, read-out: % of control remaining.

As for `O=C(O)c1ccc[nH]1` [Pyrrole-2-carboxylic acid], the remaining activity at 3.75 µM in assay [1] (Well no.=6405) is 92.4%. In addition, the remaining activity at 1.25 µM in assay [2] (Well no.=6405) stood at 93.2%.
Take `CC(=O)C(=O)O` [Pyruvic acid]: the remaining activity at 3.75 µM in assay [1] (Well no.=6683) stood at 94.5%. Further, the remaining activity at 1.25 µM in assay [2] (Well no.=6683) was 92.9%.
Take `COC1=C[C@@H](C)[C@@H]2C[C@H]3OC(=O)C[C@H]4C(C)=C(OC)C(=O)[C@H]([C@@]2(C)C1=O)[C@@]34C` [Quassin]: in assay [1] (Well no.=3775), the remaining activity at 3.75 µM stood at 101%. Also, the remaining activity at 1.25 µM in assay [2] (Well no.=3775) came out at 94.2%.
For `C[C@@H]1C(=O)NC2=Nc3cccc(Cl)c3CN21` [Quazinone], the remaining activity at 3.75 µM in assay [1] (Well no.=1221) turned out to be 95.5%. Also, in assay [2] (Well no.=1221), the remaining activity at 1.25 µM was 96.6%.
With `O=c1c(O)c(-c2ccc(O)c(O)c2)oc2cc(O)c(O)c(O)c12` [Quercetagetin], in assay [1] (Well no.=2589), the remaining activity at 3.75 µM came out at 92.1%. For the same molecule, the remaining activity at 1.25 µM in assay [2] (Well no.=2589) is 89%.
Take `O=c1c(O)c(-c2ccc(O)c(O)c2)oc2cc(O)cc(O)c12` [Quercetin dihydrate]: the remaining activity at 3.75 µM in assay [1] (Well no.=1315) is 104%. For the same molecule, the remaining activity at 1.25 µM in assay [2] (Well no.=1315) came to 102%.
In the case of `O=c1c(O)c(-c2ccc(O)c(O)c2)oc2cc(O)cc(O)c12` [Quercetin], the remaining activity at 3.75 µM in assay [1] (Well no.=5716) came out at 96%. The remaining activity at 1.25 µM in assay [2] (Well no.=5716) stood at 91.5%.
For `C[C@@H]1O[C@@H](Oc2c(-c3ccc(O)c(O)c3)oc3cc(O)cc(O)c3c2=O)[C@H](O)[C@H](O)[C@H]1O` [Quercitrin], the remaining activity at 3.75 µM in assay [1] (Well no.=3112) was 96.5%. In assay [2] (Well no.=3112), the remaining activity at 1.25 µM was 96.4%.
Turning to `OCCOCCN1CCN(C2=Nc3ccccc3Sc3ccccc32)CC1` [Quetiapine (fumarate)], the remaining activity at 3.75 µM in assay [1] (Well no.=6237) stood at 94.3%. Moreover, the remaining activity at 1.25 µM in assay [2] (Well no.=6237) was 98.2%.
With `OCCOCCN1CCN(C2=Nc3ccccc3Sc3ccccc32)CC1` [Quetiapine Fumarate], the remaining activity at 3.75 µM in assay [1] (Well no.=1684) was determined as 100%. The remaining activity at 1.25 µM in assay [2] (Well no.=1684) came out at 99.2%.
As to `OCCOCCN1CCN(C2=Nc3ccccc3Sc3ccccc32)CC1` [Quetiapine], the remaining activity at 3.75 µM in assay [1] (Well no.=6616) is 98.6%. Also, the remaining activity at 1.25 µM in assay [2] (Well no.=6616) was found to be 98.1%.
`CCN(CC)CCCC(C)Nc1c2ccc(Cl)cc2nc2ccc(OC)cc12` (centres unmarked) [Quinacrine dihydrochloride]: in assay [1] (Well no.=1173), the remaining activity at 3.75 µM is 98.3%. For the same molecule, the remaining activity at 1.25 µM in assay [2] (Well no.=1173) is 96.3%.
In the case of `CCN(CC)CCCC(C)Nc1c2ccc(Cl)cc2nc2ccc(OC)cc12` (centres unmarked) [Quinacrine], in assay [1] (Well no.=2187), the remaining activity at 3.75 µM was 97.2%. Moreover, in assay [2] (Well no.=2187), the remaining activity at 1.25 µM came to 96.6%.
Take `CCOC(=O)[C@H](CCc1ccccc1)N[C@@H](C)C(=O)N1Cc2ccccc2C[C@H]1C(=O)O` [Quinapril (hydrochloride)]: the remaining activity at 3.75 µM in assay [1] (Well no.=7828) came out at 95%. The remaining activity at 1.25 µM in assay [2] (Well no.=7828) was 96.3%.
Consider `CCOC(=O)[C@H](CCc1ccccc1)N[C@@H](C)C(=O)N1Cc2ccccc2C[C@H]1C(=O)O` [Quinapril], for which the remaining activity at 3.75 µM in assay [1] (Well no.=2189) came out at 96.3%. Also, in assay [2] (Well no.=2189), the remaining activity at 1.25 µM was determined as 98.1%.
`CCCN1CCC[C@@H]2Cc3nc(N)ncc3C[C@H]21` [Quinelorane dihydrochloride]: the remaining activity at 3.75 µM in assay [1] (Well no.=1413) is 98.2%. In addition, the remaining activity at 1.25 µM in assay [2] (Well no.=1413) stood at 95.1%.
On to `C=C[C@H]1CN2CC[C@H]1C[C@@H]2[C@@H](O)c1ccnc2ccc(OC)cc12` [Quinidine sulfate], for which the remaining activity at 3.75 µM in assay [1] (Well no.=1363) worked out at 105%. Besides, the remaining activity at 1.25 µM in assay [2] (Well no.=1363) turned out to be 101%.
As to `C=C[C@H]1CN2CC[C@H]1C[C@H]2[C@H](O)c1ccnc2ccc(OC)cc12` [Quinine sulfate], in assay [1] (Well no.=1459), the remaining activity at 3.75 µM stood at 100%. Moreover, in assay [2] (Well no.=1459), the remaining activity at 1.25 µM came out at 98.4%.
As for `O=C(O)c1cccnc1C(=O)O` [Quinolinic acid], the remaining activity at 3.75 µM amounted to 109% in assay [1] (Well no.=1267) and 94.7% in assay [1] (Well no.=7265). The remaining activity at 1.25 µM in assay [2] (Well no.=1267) is 105%; in assay [2] (Well no.=7265), 96.1%.
Take `c1ccc2nc(N3CCNCC3)ccc2c1` [Quipazine dimaleate]: the remaining activity at 3.75 µM in assay [1] (Well no.=1411) was 101%. For the same molecule, in assay [2] (Well no.=1411), the remaining activity at 1.25 µM was found to be 99.5%.
On to `N[C@@H](Cn1oc(=O)[nH]c1=O)C(=O)O` [Quisqualic acid], for which, in assay [1] (Well no.=3535), the remaining activity at 3.75 µM was determined as 101%. Besides, the remaining activity at 1.25 µM in assay [2] (Well no.=3535) amounted to 101%.
Turning to `COc1cc(Nc2ncc(F)c(Nc3ccc4c(n3)NC(=O)C(C)(C)O4)n2)cc(OC)c1OC` [R406 (free base)], in assay [1] (Well no.=4951), the remaining activity at 3.75 µM was found to be 102%. The remaining activity at 1.25 µM in assay [2] (Well no.=4951) worked out at 102%.
With `COc1cc(Nc2ncc(F)c(Nc3ccc4c(n3)NC(=O)C(C)(C)O4)n2)cc(OC)c1OC` [R406], in assay [1] (Well no.=4816), the remaining activity at 3.75 µM was 99.1%. In addition, the remaining activity at 1.25 µM in assay [2] (Well no.=4816) is 101%.
`COc1ccc(F)c(F)c1C(=O)c1cnc(NC2CCN(S(C)(=O)=O)CC2)nc1N` [R547]: the remaining activity at 3.75 µM in assay [1] (Well no.=4653) was 93.6%. Moreover, in assay [2] (Well no.=4653), the remaining activity at 1.25 µM came out at 94.4%.
As for `CCCN1CCC[C@H](c2cccc(O)c2)C1` [R(+)-3PPP hydrochloride], in assay [1] (Well no.=1261), the remaining activity at 3.75 µM was 107%. Besides, the remaining activity at 1.25 µM in assay [2] (Well no.=1261) was found to be 105%.
In the case of `C=CCN1CCc2c(cc(O)c(O)c2Br)[C@@H](c2ccccc2)C1` [R(+)-6-Bromo-APB hydrobromide], in assay [1] (Well no.=277), the remaining activity at 3.75 µM stood at 97.4%. For the same molecule, the remaining activity at 1.25 µM in assay [2] (Well no.=277) amounted to 98.1%.
Regarding `CC(C)NC[C@@H](O)COc1ccc(CC(N)=O)cc1` [R(+)-Atenolol], in assay [1] (Well no.=302), the remaining activity at 3.75 µM came to 94.8%. Also, the remaining activity at 1.25 µM in assay [2] (Well no.=302) is 94.7%.
As to `C[C@@]1(C2CCCC2)Cc2cc(OCC(=O)O)c(Cl)c(Cl)c2C1=O` [R(+)-IAA-94], in assay [1] (Well no.=921), the remaining activity at 3.75 µM amounted to 105%. Also, in assay [2] (Well no.=921), the remaining activity at 1.25 µM was determined as 104%.
Consider `CN1CCc2cc(Cl)c(O)cc2[C@@H](c2ccccc2)C1` [R(+)-SCH-23390 hydrochloride], for which the remaining activity at 3.75 µM in assay [1] (Well no.=638) is 98%. Moreover, in assay [2] (Well no.=638), the remaining activity at 1.25 µM amounted to 96.8%.
With `COc1cc2c(c(OC)c1OC)-c1c(cc(OC)c(OC)c1OC)C[C@H](C)[C@H](C)C2` [R(+)-Schisandrin A], the remaining activity at 3.75 µM in assay [1] (Well no.=3741) turned out to be 93.8%. Also, in assay [2] (Well no.=3741), the remaining activity at 1.25 µM is 91.7%.
In the case of `CCN(CC)C(=O)N[C@@H]1C[C@@H]2c3cccc4[nH]cc(c34)C[C@H]2N(C)C1` [R(+)-Terguride], the remaining activity at 3.75 µM in assay [1] (Well no.=1330) came to 104%. Further, the remaining activity at 1.25 µM in assay [2] (Well no.=1330) is 103%.
For the molecule `CCCN(CCC)[C@@H]1CCc2c(F)ccc(O)c2C1` [R(+)-UH-301 hydrochloride], in assay [1] (Well no.=1382), the remaining activity at 3.75 µM was found to be 98.5%. In assay [2] (Well no.=1382), the remaining activity at 1.25 µM worked out at 98.7%.
For `CCCN1CCc2cc(O)cc3c2[C@H]1Cc1ccc(O)c(O)c1-3` [R(-)-2,10,11-Trihydroxy-N-propylnoraporphine hydrobromide], in assay [1] (Well no.=636), the remaining activity at 3.75 µM came out at 103%. The remaining activity at 1.25 µM in assay [2] (Well no.=636) is 103%.
